Reference: US9556098B2, “Reduced coenzyme Q10 crystal having excellent stability” (KANEKA CORPORATION, priority 2011, dated 2017)

Columns and labels:
Assay type in all cases: physicochemical
[1] = Solubility of the crystal in hexane; settings: n-hexane, temperature of 25° C.
Description: (§1) The inside of a 300 mL reaction flask (made of heat resistant glass) was replaced with nitrogen, and thereafter 40 g of commercially available reduced coenzyme Q10 (produced by Kaneka Corporation, conventionally known reduced coenzyme Q10 crystal) and 60 g of n-hexane were charged thereto and warmed to 40° C. with stirring to completely dissolve the reduced coenzyme Q10 in n-hexane. The solution was cooled to 25° C. at a cooling rate of 10° C./hour, then kept at 25° C. for 96 hours while being continuously stirred, and subjected to filtration and drying (drying under reduced pressure, 20 to 40° C.) to provide a crystal. From the result of analysis by DSC, the crystal was confirmed to have an endothermic peak indicating melting at 54.2° C. during temperature rise at a rate of 5° C./min, and an endothermic peak indicating melting at 51.6° C. during temperature rise at a rate of 1° C./min. In addition, as the result of analysis by powder X-ray diffraction, characteristic peaks at diffraction angles (2θ±0.2°) of 11.50°, 18.26°, 19.30°, 22.30°, 23.00° and 33.14° were observed as shown in FIG. 1. […] From the above analysis results, it was confirmed that the reduced coenzyme Q10 crystal obtained in the present Example was in a different crystal form from the conventionally known reduced coenzyme Q10 crystal. The solubility of the resulting crystal in hexane was measured, and found to be 9% by weight at a temperature of 25° C.

[2] = Sticking property due to electrostatic charge during pulverization by a mortar; settings: collection by stainless spatula
Description: as §1, with “The solubility of the resulting crystal in hexane was measured, and found to be 9% by weight at a temperature of 25° C.” left out

[3] = Solubility of the crystal in ethanol; settings: temperature of 30° C.

| SMILES | solubility in hexane [1] [% by weight] | sticking property due to electrostatic charge [2] | solubility in ethanol [3] |
| --- | --- | --- | --- |
| COc1c(O)c(C)c(C/C=C(\C)CC/C=C(\C)CC/C=C(\C)CC/C=C(\C)CC/C=C(\C)CC/C=C(\C)CC/C=C(\C)CC/C=C(\C)CC/C=C(\C)CCC=C(C)C)c(O)c1OC [Example 1, reduced coenzyme Q10] | 9 | did not exhibit sticking property | – |
| COc1c(O)c(C)c(C/C=C(\C)CC/C=C(\C)CC/C=C(\C)CC/C=C(\C)CC/C=C(\C)CC/C=C(\C)CC/C=C(\C)CC/C=C(\C)CC/C=C(\C)CCC=C(C)C)c(O)c1OC [Comparative Example 1, reduced coenzyme Q10] | 36.5 | exhibited remarkable sticking property | – |
| COc1c(O)c(C)c(C/C=C(\C)CC/C=C(\C)CC/C=C(\C)CC/C=C(\C)CC/C=C(\C)CC/C=C(\C)CC/C=C(\C)CC/C=C(\C)CC/C=C(\C)CCC=C(C)C)c(O)c1OC [conventionally known reduced coenzyme Q10 crystal] | ≥ 30 | – | ≥ 4 % by weight |
| COc1c(O)c(C)c(C/C=C(\C)CC/C=C(\C)CC/C=C(\C)CC/C=C(\C)CC/C=C(\C)CC/C=C(\C)CC/C=C(\C)CC/C=C(\C)CC/C=C(\C)CCC=C(C)C)c(O)c1OC [reduced coenzyme Q10 crystal of the present invention] | ≤ 15 | – | less than 4 % by weight |
